Data set [1] can be described thus: Half life in rat liver microsomes at 1 uM after 5 to 60 mins in presence of NADPH by LC-MS/MS analysis. The data set is classed as ADME, Microsome. For orientation: Liver microsomes are vesicles of endoplasmic reticulum, rich in cytochrome P450 enzymes.
Data set [2] can be described thus: Intrinsic clearance in human liver microsomes assessed per mg protein at 1 uM after 5 to 60 mins in presence of NADPH by LC-MS/MS analysis. In kind it is ADME, Microsome. The note with it: read-out: CLH.
Data set [3] is described as follows: Half life in human liver microsomes at 1 uM after 5 to 60 mins in presence of NADPH by LC-MS/MS analysis. In kind it is ADME, Microsome.
A short description of data set [4]: Intrinsic clearance in rat liver microsomes assessed per mg protein at 1 uM after 5 to 60 mins in presence of NADPH by LC-MS/MS analysis. In kind it is ADME, Microsome. The note with it: read-out: CLH.
Data set [5] deals with T1, Receptor-type tyrosine-protein kinase FLT3 (Homo sapiens, UniProt P36888).
T1 sequence (P36888 whole entry): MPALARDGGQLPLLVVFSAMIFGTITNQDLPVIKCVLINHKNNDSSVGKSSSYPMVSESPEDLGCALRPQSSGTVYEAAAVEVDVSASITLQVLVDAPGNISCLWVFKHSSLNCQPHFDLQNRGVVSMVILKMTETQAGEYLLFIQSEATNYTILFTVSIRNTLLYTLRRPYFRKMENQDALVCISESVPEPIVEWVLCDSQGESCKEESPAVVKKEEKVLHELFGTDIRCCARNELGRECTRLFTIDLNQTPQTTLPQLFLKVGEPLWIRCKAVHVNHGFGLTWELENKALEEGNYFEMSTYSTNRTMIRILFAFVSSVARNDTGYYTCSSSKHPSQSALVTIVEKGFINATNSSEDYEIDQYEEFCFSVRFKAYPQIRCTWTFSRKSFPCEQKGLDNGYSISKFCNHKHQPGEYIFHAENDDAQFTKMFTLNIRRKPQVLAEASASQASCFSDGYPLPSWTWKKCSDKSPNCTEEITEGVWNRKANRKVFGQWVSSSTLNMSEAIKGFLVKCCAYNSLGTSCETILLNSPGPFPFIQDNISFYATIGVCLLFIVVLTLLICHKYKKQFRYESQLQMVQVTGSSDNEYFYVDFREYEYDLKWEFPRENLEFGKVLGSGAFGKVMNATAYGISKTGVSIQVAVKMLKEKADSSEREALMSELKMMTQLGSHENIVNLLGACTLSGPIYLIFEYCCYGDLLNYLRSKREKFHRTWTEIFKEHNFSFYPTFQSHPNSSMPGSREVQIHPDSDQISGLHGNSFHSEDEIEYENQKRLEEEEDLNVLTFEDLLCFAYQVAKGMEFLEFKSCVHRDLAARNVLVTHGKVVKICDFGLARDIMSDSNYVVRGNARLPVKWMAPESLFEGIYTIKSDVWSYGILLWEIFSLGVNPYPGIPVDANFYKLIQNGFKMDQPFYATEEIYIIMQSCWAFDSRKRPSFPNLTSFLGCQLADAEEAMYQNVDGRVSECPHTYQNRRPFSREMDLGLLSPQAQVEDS
The data set can be described thus: Inhibition of human FLT3 using EAIYAAPFAKKK as substrate preincubated for 20 mins followed by [gamma-33P]-ATP addition and measured after 120 mins by Hotspot assay.

Data set [6] deals with MV4-11. The experiment in a line: Induction of apoptosis in human MV4-11 cells assessed as viable cells at 1 uM after 24 hrs by Annexin V-FITC/propidium iodide staining based flow cytometric analysis (reference value: 95.19%). The note with it: MV4-11, 24 h, read-out: Activity. In kind it is functional. In general terms: In flow cytometry, cells or beads pass a laser one at a time.

Data set [7] deals with MV4-11. The experiment in a line: Induction of apoptosis in human MV4-11 cells assessed as early apoptotic cells at 1 uM after 24 hrs by Annexin V-FITC/propidium iodide staining based flow cytometric analysis (reference value: 3.39%). The data set is classed as functional.
Data set [8] concerns MV4-11. The experiment in a line: Induction of apoptosis in human MV4-11 cells assessed as late apoptotic cells at 1 uM after 24 hrs by Annexin V-FITC/propidium iodide staining based flow cytometric analysis (reference value: 1.42%). In kind it is functional.
Data set [9] has as its system MV4-11. The data set can be described thus: Cytotoxicity against human MV4-11 cells at 1 uM after 72 hrs by MTT assay. In kind it is cell-based. The note with it: mv4-11, 72 h. (In general: Tetrazolium dyes change colour on reduction, which living cells bring about.)
Data set [10] relates to MV4-11. The data set can be described thus: Induction of apoptosis in human MV4-11 cells assessed as necrotic cells at 1 uM after 24 hrs by Annexin V-FITC/propidium iodide staining based flow cytometric analysis (reference value: 0%). In kind it is functional.

The values that follow come from ChEMBL document CHEMBL4330071 (Eur J Med Chem, 2019).

The structures appear in SMILES notation.

A word on the half-life: it is how long it takes for the measured level to halve. What is called IC50 is the concentration that gives 50% inhibition.

Turning to `Cc1ncc2n1-c1ccc(Cl)cc1C(c1ccccc1F)=NC2` [MIDAZOLAM], the half-life at 1 µM in [1] turned out to be 11.2 min; in data set [3] it was 2.2 min. Besides, the results for the microsomal CLint at 1 µM in [2] and in data set [4] were 625 µL/min/mg and 124 µL/min/mg, respectively.

For `COc1ccc(Oc2ccc3c(NC(=O)c4ccc(NC5CCN(C)CC5)cc4)n[nH]c3c2)cc1`, in data set [5], the midpoint of inhibition, the IC50, lay at 222 nM.

In the case of `CN1CCN(c2ccc(Nc3[nH]nc4c3-c3ccccc3CO4)cc2)CC1`, half-maximal inhibition in [5] (IC50) required 842 nM.

In the case of `CNC(=O)c1cc(Oc2ccc(NC(=O)Nc3ccc(Cl)c(C(F)(F)F)c3)cc2)ccn1` [SORAFENIB], the viability at 1 µM in the data set on MV4-11 [6] was 36%. Also, the Activity in the data set with MV4-11 [7] is given as 32.25%; in the data set on MV4-11 [8] it was 27.58%; in the data set on MV4-11 [9] it was “Non-Toxic”; with MV4-11 [10], 4.2%.

`CN1CCN(c2ccc(Nc3[nH]nc4c3-c3ccccc3CC4)cc2)CC1` gave a half-inhibitory concentration (IC50) in data set [5] of 610 nM.

Take `CN1CCC(Nc2ccc(C(=O)Nc3n[nH]c4cc(Oc5ccccc5)ccc34)cc2)CC1`: half-maximal inhibition in [5] (IC50) required 136 nM.
